PMC10134273 (Cancer Medicine, 2023)
Like-named read-outs stand apart in the source and are kept apart here.

Tests used:
[1] = human, in vivo
Protocol: (§1) Secondary endpoints included PK parameters (e.g., maximum observed concentration [C max] and area under the concentration‐time curve [AUC]). Secondary endpoints included objective response rate (ORR), disease control rate (DCR), and duration of response (DOR) as assessed by investigator per RECIST v1.1. Tumor responses were assessed according to RECIST v1.1; computerized tomography scanning or magnetic resonance imaging was performed every 6 weeks in the first 48 weeks, and every 12 weeks thereafter. Secondary endpoints also included safety and tolerability (adverse events [AEs] as defined by the National Cancer Institute‐Common Terminology Criteria for Adverse Events CTCAE v5.0) and exploratory biomarkers (total bile acids, 7‐α‐hydroxy‐4‐cholesten‐3‐one [C4] and circulating FGF19). Safety follow‐up visit was performed within 30 days (±5 days) and 90 days (±7 days) after the last dose of the study treatment.
All patients who received at least one dose of the study treatment in the Phase 1 part of the study were included in the safety and efficacy analyses. Dose escalation and MTD assessment were primarily based on DLTs which occurred within the 28‐day observation period. Descriptive statistics were used for demographics, safety, and efficacy data. The number of patients who experienced DLTs (within and outside of the 28‐day DLT assessment period) was tabulated for each dose level. The sample size of patients required for dose escalation were determined based on the ‘3+3’ design and DLTs observed as the trial progressed.

advanced solid tumors = assay: Tumor response per RECIST v1.1; type: in vivo, human
FGFR4 pathway = assay: Exploratory biomarkers (total bile acids, C4, circulating FGF19); type: in vivo, human
Protocol: as §1

[2] = test system: HCC or solid tumors with positive FGFR4 and KLB expression; conditions: cited from earlier work
[3] = test system: triple positive HCC tumors; conditions: cited from earlier work
[4] = 40 mg BID (N=3) + pembrolizumab
[5] = 60 mg BID (N=3) + pembrolizumab
[6] = 80 mg BID (N=6) + pembrolizumab
[7] = 80 mg BID group + pembrolizumab
[8] = 100 mg BID (N=7) + pembrolizumab
[9] = most patients treated with 40, 60, 80, and 100 mg
[10] = CFGF401X2101 trial, Grade ≥3 TEAE

COCCNc1cc(NC(=O)N2CCCc3cc(CN4CCN(C)CC4=O)c(C=O)nc32)ncc1C#N [EVER4010001, roblitinib]
Any TEAE: Gastrointestinal disorders [1]: 19 n (%)
EVER4010001-related TEAEs [1]: 19 (100) n (%)
EVER4010001-related TEAEs: Increased Blood Alkaline Phosphatase [1]: 5 (26.3) n (%)
SAEs: Device dislocation [1]: 1 (5.3) n (%)
SAEs: Product issues [1]: 1 (5.3) n (%)
TEAEs leading to discontinuation: Aspartate aminotransferase increased [1]: 2 [10.5%] n (%)
TEAEs leading to discontinuation: Blood bilirubin increased [1]: 1 [5.3%] n (%)
TEAEs resulting in temporary interruption of EVER4010001 [1]: 4 [21.0%] n (%)
Any TEAE: Anemia ([1]; 93.4 days): 0 n (%)
Any TEAE: Diarrhea ([1]; 93.4 days): 1 (5.3) n (%)
SAEs: Gastrointestinal disorders ([1]; 93.4 days): 1 (5.3) n (%)
SAEs: General disorders and administration site conditions ([1]; 93.4 days): 1 (5.3) n (%)
SAEs: Pancreatitis ([1]; 93.4 days): 1 (5.3) n (%)
TEAEs leading to discontinuation: Aspartate aminotransferase increased ([1]; 93.4 days): 2 (10.5) n (%)
TEAEs leading to discontinuation: Blood bilirubin increased ([1]; 93.4 days): 1 (5.3) n (%)
TEAEs leading to discontinuation: Investigations ([1]; 93.4 days): 3 (15.8) n (%)
TEAEs leading to discontinuation: Vascular disorders ([1]; 93.4 days): 1 (5.3) n (%)
TEAEs resulting in temporary interruption of EVER4010001 ([1]; 93.4 days): 4 (21.0) n (%)
Best overall response: Complete response (advanced solid tumors; [4]): 0 n (%)
Best overall response: Not evaluable (advanced solid tumors; [4]): 0 n (%)
Best overall response: Partial response (advanced solid tumors; [4]): 0 n (%)
Best overall response: Progressive disease (advanced solid tumors; [4]): 1 (33.3) n (%)
Best overall response: Stable disease (advanced solid tumors; [4]): 2 (66.7) n (%)
Disease control rate (CR+PR+SD) (advanced solid tumors; [4]): 2 (66.7) n (%)
Objective response (CR+PR) (advanced solid tumors; [4]): 0 n (%)
DCR (advanced solid tumors; 40 mg BID group + pembrolizumab): 66.7%
Best overall response: Complete response (advanced solid tumors; [5]): 0 n (%)
Best overall response: Not evaluable (advanced solid tumors; [5]): 0 n (%)
Best overall response: Partial response (advanced solid tumors; [5]): 0 n (%)
Best overall response: Progressive disease (advanced solid tumors; [5]): 2 (66.7) n (%)
Best overall response: Stable disease (advanced solid tumors; [5]): 1 (33.3) n (%)
Disease control rate (CR+PR+SD) (advanced solid tumors; [5]): 1 (33.3) n (%)
Objective response (CR+PR) (advanced solid tumors; [5]): 0 n (%)
DCR (advanced solid tumors; 60 mg BID group + pembrolizumab): 33.3%
Best overall response: Complete response (advanced solid tumors; [6]): 0 n (%)
Best overall response: Not evaluable (advanced solid tumors; [6]): 1 (16.7) n (%)
Best overall response: Partial response (advanced solid tumors; [6]): 1 (16.7) n (%)
Best overall response: Progressive disease (advanced solid tumors; [6]): 2 (33.3) n (%)
Best overall response: Stable disease (advanced solid tumors; [6]): 2 (33.3) n (%)
Disease control rate (CR+PR+SD) (advanced solid tumors; [6]): 3 (50.0) n (%)
Objective response (CR+PR) (advanced solid tumors; [6]): 1 (16.7) n (%)
DCR (advanced solid tumors; [7]): 50%
ORR (advanced solid tumors; [7]): 16.7%
Best overall response: Complete response (advanced solid tumors; [8]): 0 n (%)
Best overall response: Not evaluable (advanced solid tumors; [8]): 1 (14.3) n (%)
Best overall response: Partial response (advanced solid tumors; [8]): 0 n (%)
Best overall response: Stable disease (advanced solid tumors; [8]): 0 n (%)
Disease control rate (CR+PR+SD) (advanced solid tumors; [8]): 0 n (%)
Objective response (CR+PR) (advanced solid tumors; [8]): 0 n (%)
DCR (advanced solid tumors; 100 mg BID group + pembrolizumab): 0%
ORR (advanced solid tumors; across all doses, + pembrolizumab): 5.3%
serum biomarkers (C4, total bile acid concentration, circulating FGF19) as indicator of pathway suppression (FGFR4 pathway; all doses): FGFR4 pathway suppression being achieved at all doses
circulating FGF19 (FGFR4 pathway; [9]): elevated
plasma C4 (7-α-hydroxy-4-cholesten-3-one) (FGFR4 pathway; [9]): elevated
total bile acid concentration (FGFR4 pathway; [9]): elevated
increased ALT [2, 10]: 15.0%
increased AST [2, 10]: 18.8%
increased ALT ([2]; CFGF401X2101 trial, any grade): 43.8%
ORR ([2]; CFGF401X2101 trial): 8%
diarrhea suspected to be related to the study drug ([2]; CFGF401X2101 trial): 69%
recommended Phase 2 dose (RP2D) ([2]; QD doses 50-150 mg, fasted or unfasted patients): 120 mg QD
geometric mean Cmax (geometric coefficient of variation %) ([2]; RP2D 120 mg FGF401 QD, CFGF401X2101 trial): 1120 ng/mL
recommended Phase 2 dose (RP2D) ([2]; in combination with spartalizumab 300 mg Q3W): 120 mg QD
antitumor effect in preclinical models [3]: induced regression/stasis
